Among the data in PubChem BioAssay AID1159562 (GlaxoSmithKline (GSK), 2015) are IC50 values, retold here.

Active and inactive are the calls of the source. How the calls were made is not given here.

The subject of the assay is Trypanosoma brucei growth inhibition, luminescence. The experiment in a line: antitrypanosomal activity against T. brucei – luminescence (AID 1159562).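 Further: parasites grew with compound for 24 h before the luminescence read.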
For the compound `CCC(=O)Nc1ccc(-c2nc3ccc(Cl)cc3[nH]2)cc1`, the IC50 was > 40000 nM (inactive).
With `O=C(Nc1ccc(Br)c(Cl)c1)Nc1ccc2c(c1)OCO2` the figure was 13000 nM; with `CN(C)Cc1ccc(-c2ccc(S(=O)(=O)NCC3CCCO3)c(F)c2)cc1` (stereo not drawn), 40000 nM.
In the case of `O=C(CC1(O)C(=O)N(Cc2ccccc2)c2ccc(Br)cc21)c1cccnc1` (stereo not drawn) it was 790 nM; in that of `COc1ccc(C(=O)NC2CCN(CCn3c(=O)ccc4ncc(F)cc43)CC2)cc1Cl`, 250 nM; in that of `OC[C@@H](Nc1nccc(-c2c(-c3ccc(F)cc3)ncn2C2CCNCC2)n1)c1ccccc1`, 630 nM.
With `COc1ccc(S(=O)(=O)Nc2ccc(CN3CCN(C(=O)c4cccc(C#N)c4)CC3)cc2)cc1` the figure was 630 nM; with `CN(C)S(=O)(=O)c1cccc(C(=O)Nc2nc(-c3ccccn3)cs2)c1`, 630 nM.
For the compound `CC(c1cc(Cl)cc(Cl)c1)N(C)c1ncc2c(N)nc(N)nc2n1` (stereo not drawn), the IC50 was 32000 nM.
In the case of `O=C(NC1C(=O)N(c2ccccc2)C1c1cccnc1)c1ccc(Cl)s1` (stereo not drawn) it was > 40000 nM (inactive).
With `O=C(CN(c1cccc(C(F)(F)F)c1)S(=O)(=O)c1ccc(Cl)cc1)NCc1ccc(F)c(F)c1` the figure was 25000 nM.
With `CC1CCCN(S(=O)(=O)c2ccc(C(=O)Nc3nc(-c4ccccn4)cs3)cc2)C1` (stereo not drawn) the figure was 400 nM.
In the case of `COc1ccc(OC)c(NC(=O)c2ccc([N+](=O)[O-])o2)c1`, the IC50 was 63 nM.
With `CNS(=O)(=O)c1ccccc1Nc1nc(Nc2ccnn2C)ncc1Cl` the figure was 100 nM.
With `Cc1ccc(C)c(-n2nnnc2Sc2nc([N+](=O)[O-])nn2C)c1` the figure was 16000 nM; with `O=S(=O)(NCC(c1cccnc1)N1CCN(c2ccc(F)cc2)CC1)c1cccs1` (stereo not drawn), > 40000 nM (inactive); with `Cc1[nH]c2ccccc2c(=O)c1Cc1c(C)[nH]c2ccccc2c1=O`, > 40000 nM (inactive).
Consider `O=C(CSc1ccc(F)cc1)N[C@@H](Cc1cnc[nH]1)C(=O)NCCc1ccccc1`, for which the IC50 is > 40000 nM (inactive).
With `OCC1CCCCN1c1cc(-c2ccccn2)nc(Nc2ccccc2)n1` (stereo not drawn) the figure was 6300 nM; with `COc1ccc(S(=O)(=O)Nc2ccccc2OC)cc1NC(=O)CCCc1c[nH]c2ccccc12`, 32000 nM; with `Cc1cc(Oc2cc(Cl)c(Cl)cc2Cl)n2ncnc2n1`, 400 nM.
As to `O=C1COC(c2ccccc2)(c2ccccc2)CN1C1CCN(Cc2ccc(-n3ccnc3)cc2)CC1`, the IC50 was 1000 nM.
In the case of `CCN(CC)S(=O)(=O)c1ccc(C(=O)Nc2cc(C)nn2-c2nc(C)c(C)c(=O)[nH]2)cc1` it was 320 nM.
Turning to `O=C(Nc1ccccc1)Nc1nc(-c2ccccn2)cs1`, the IC50 is 1000 nM.
In the case of `CCOC(=O)c1noc(N)c1-c1ccccc1` it was 630 nM; in that of `CCCc1nc2nc(N)nc(N)c2cc1CC`, 25000 nM; in that of `COc1cc2c(cc1OC)[C@H]1[C@@H](C)c3ccc(OC)c(OC)c3CN1CC2`, > 40000 nM (inactive).
In the case of `Cc1cc(C)n(-c2nc(NC(C)C)nc(NC(C)(C)C)n2)n1` it was 13000 nM; in that of `CCS(=O)(=O)Nc1ccc(C2=NN(C(=O)c3cccs3)C(c3ccccc3OC)C2)cc1` (stereo not drawn), 16000 nM.
In the case of `CC(C)(C)C(=O)Nc1cc(C2CC2)nn1-c1nc2c(c(=O)[nH]1)CCCC2` it was 200 nM.
Turning to `O=C(CCCNC(=O)c1ccc(Cl)cc1)Nc1nc(-c2ccccn2)cs1`, the IC50 is 13000 nM.
With `CC(C)C[C@H](NC(=O)c1ccc(-c2ccccc2)o1)C(=O)NC1(C#N)CC1` the figure was 50 nM.
In the case of `CCOc1ccc2nc(NC(=O)c3ccc([N+](=O)[O-])s3)sc2c1` it was 2500 nM; in that of `COc1ccc2ncc(=O)n(CCN3CC[C@H](NCc4ncc(Cl)c5[nH]ncc45)[C@H](O)C3)c2n1`, 500 nM.
Consider `Cc1ccc2c(c1)SC(C(=O)Nc1n[nH]c(-c3ccccn3)n1)C2` (stereo not drawn), for which the IC50 is > 40000 nM (inactive).
In the case of `COc1ccc(NS(=O)(=O)c2cc(-c3cc(C)[nH]n3)ccc2C)cc1OC` it was 630 nM; in that of `Cc1ccccc1NS(=O)(=O)c1ccc2[nH]cc(C(=O)NC3CCCCC3)c(=O)c2c1`, 320 nM.
In the case of `COc1ccc(C)cc1-c1csc(NC(=O)C(C)n2ccnc2)n1` (stereo not drawn) it was > 40000 nM (inactive); in that of `O=C(NCCc1csc(-c2ccc(F)cc2)n1)c1ccco1`, 500 nM.
With `Cc1ccc2nc(N(Cc3cccnc3)C(=O)CCc3ccccc3)sc2c1` the figure was 20000 nM; with `CS(=O)(=O)c1ccc(CC(=O)Nc2nc(-c3ccc(Cl)s3)cs2)cc1`, > 40000 nM (inactive).
Take `CCn1c(-c2nonc2N)nc2c([C@@H](C)O)ncc(O[C@H](CN)c3ccccc3)c21`: the IC50 is 790 nM.
With `Cc1cc2cc(CNc3ccc4c(c3)OCO4)c(=O)n(CCO)c2cc1C`, the IC50 was > 40000 nM (inactive).
In the case of `COc1ccc(-c2cc(C)no2)cc1S(=O)(=O)Nc1ccc(F)c(Cl)c1` it was 25000 nM.
With `COc1ccc(C(=O)N2CCC(Nc3cccnc3)C2)c(OC)n1` (stereo not drawn) the figure was > 40000 nM (inactive); with `COc1cnc2ccc(=O)n(CCN3CCC(NC(=O)c4ccc(Cl)cc4)CC3)c2c1`, 100 nM; with `CC(C)(C)CC(=O)NCc1noc(COc2ccccc2)n1`, 790 nM.
In the case of `COc1ccc(C2=NCC(CSc3nnc(-c4ccc5c(c4)OCO5)o3)S2)cc1` (stereo not drawn) it was > 40000 nM (inactive); in that of `CN(C)CCN(C)Cc1ccc(F)cc1NS(=O)(=O)c1ccc(Cl)c(Cl)c1`, 5000 nM; in that of `CCCCn1nnnc1CSc1nc(C)cc(C)c1C#N`, > 40000 nM (inactive).
With `CCNc1cc(-c2ccccn2)nc(Nc2ccccc2)n1`, the IC50 was 13000 nM.
In the case of `Cc1cc(C)cc(NS(=O)(=O)c2cc(-c3cc(C)[nH]n3)ccc2C)c1` it was 2000 nM.
Take `O=C(Nc1ccccc1C(=O)Nc1ccccn1)c1ccco1`: the IC50 is 500 nM.
With `CC(C(=O)Nc1ccc(Br)cc1)N1CCN(c2ccc([N+](=O)[O-])cc2)CC1` (stereo not drawn) the figure was > 40000 nM (inactive); with `Cc1ccc2sc(NC(=O)Cn3cnc([N+](=O)[O-])n3)nc2c1`, > 40000 nM (inactive).
In the case of `O=C(Nc1nc(-c2ccc(S(=O)(=O)N3CCOCC3)cc2)cs1)c1ccc([N+](=O)[O-])cc1`, the IC50 was 10000 nM.
In the case of `Cc1cc(Nc2cc(C3CC3)[nH]n2)nc(N2CCC[C@H]2C(N)=O)n1` it was 63 nM.
On to `O=C(NC(c1ccc(Cl)cc1)c1cnccn1)C1CCN(C(=O)Nc2cccc(C(F)(F)F)c2)CC1` (stereo not drawn), for which the concentration for half-maximal inhibition (IC50) was 6300 nM.
With `O=C(N[C@H](CO)c1ccccc1)c1ccc(-c2c[nH]c3nccc(C(F)(F)F)c23)s1` the figure was 400 nM; with `O=C(NCCc1ccccc1Cl)c1cccn1-c1cccnc1`, > 40000 nM (inactive).
In the case of `Cc1cc(Br)cc(C(=O)c2c(C(C)C)c(=O)[nH]c(=O)n2Cc2ccnc(N)c2)c1` it was 25000 nM.
In the case of `CCOc1ccc(Nc2ccc(S(=O)(=O)N3CCN(C)CC3)cc2[N+](=O)[O-])cc1OCC` it was 32000 nM.
`COc1ccc(-c2cnc(NC(=O)c3ccc(F)cc3)n2C)cc1`: the IC50 is 3200 nM.
With `CC(C)n1c(-c2nonc2N)nc2cccc(OCCN3CCCC3)c21` the figure was 790 nM; with `O=c1ccc2ccc(F)c3c2n1C[C@H]3CN1CCC(NCc2cc3ccccc3o2)CC1`, 2000 nM; with `CCCCn1c(=O)c2c(N)onc2n(CCCC)c1=O`, 500 nM.
In the case of `O=S(=O)(c1ccccc1C(F)(F)F)N1CCN(Cc2ccc(-n3ccnc3)cc2)CC1` it was > 40000 nM (inactive); in that of `O=[N+]([O-])c1cccc(Nc2cncc(-c3ccccc3CO)c2)c1`, > 40000 nM (inactive).
In the case of `CC(C)(C)CC(=O)NCCc1csc(-c2ccc(F)cc2)n1` it was 500 nM; in that of `Cc1cc(Nc2ccc(C#N)c(Cl)c2C)n[nH]1`, 250 nM; in that of `COc1ccccc1C=CCN1C[C@H]2CCC[C@@H](C1)C2(O)c1cccnc1` (stereo partly drawn), > 40000 nM (inactive).
In the case of `O=C(NCCCn1cnc2ccccc21)c1ccc(NC(=O)c2ccco2)cc1`, the IC50 is 250 nM.
With `CCc1nn(-c2ncc(F)c(NC(C)C)n2)c(N)c1C1CCCCC1` the figure was 16000 nM; with `O=C(Nc1ccc(S(=O)(=O)N2CCCC2)cc1)c1ccc([N+](=O)[O-])s1`, 200 nM.
Take `Cc1cc2nc(CN(C)Cc3ncccc3C)[nH]c2cc1C`: the IC50 was 630 nM.
In the case of `COc1ccc(-c2cnc(C)o2)cc1S(=O)(=O)Nc1ccc(C)cc1C` it was 32000 nM.
In the case of `COc1ccc(CN2CCCCC2c2nc(-c3cccnc3)no2)cc1` (stereo not drawn) it was > 40000 nM (inactive).
With `Clc1ccc(OCCN2CCCCC2c2cccnc2)c(Cl)c1` (stereo not drawn) the figure was > 40000 nM (inactive).
`CNc1nc(C)nc(N2CCc3cc(C(=O)NCc4ccc(-c5nccn5C)cc4Cl)ccc32)n1`: the IC50 was 20000 nM.
With `COc1cccc(-c2cc(C(F)(F)F)nc(-n3ccc([N+](=O)[O-])n3)n2)c1` the figure was > 40000 nM (inactive); with `O=c1cc(NCCCNCc2cc(C(F)(F)F)cs2)[nH]c2ccccc12`, 400 nM; with `COc1cc(-c2nc(N3CCOCC3)sc2-c2ccnc(NC3CCOCC3)n2)ccc1Cl`, > 40000 nM (inactive).
With `O=C1CCCCCC1(Cc1cnc[nH]1)c1ccc(Cl)cc1Cl` (stereo not drawn) the figure was > 40000 nM (inactive).
In the case of `CC(=O)Nc1ccc(CN2CCC(N3CC(c4ccccc4)(c4ccccc4)OCC3=O)CC2)cc1` it was 400 nM; in that of `O=C(CCCn1cnc([N+](=O)[O-])n1)Nc1cccc(Cl)c1`, > 40000 nM (inactive).
With `Clc1cc(Br)ccc1OCCCCn1ccnc1`, the IC50 was 20000 nM.
In the case of `Cc1[nH]nc(Nc2ccnc3[nH]ccc23)c1C` it was 250 nM; in that of `CNC(=O)C1Cc2ccccc2N1C(=O)Cc1ccc(F)cc1` (stereo not drawn), 250 nM; in that of `COc1ccc([N+](=O)[O-])cc1NC(=O)Nc1cccc(Cl)c1`, 20000 nM.
As for `COc1ccc(-c2nc3ncccc3o2)cc1NC(=O)c1cccs1`, the half-inhibitory concentration (IC50) was 2500 nM.
Regarding `CNC(=O)C1Cc2ccccc2N1C(=O)Cc1ccc(OC)cc1` (stereo not drawn), the IC50 is 500 nM.
In the case of `Cc1c(CNC(=O)c2ccc(Cn3cc(Cl)c([N+](=O)[O-])n3)cc2)cnn1C` it was 10000 nM.
With `Cc1nc2nc(C)c(Cc3ccc(C(C)C)cc3)c(=O)n2[nH]1` the figure was > 40000 nM (inactive).
